{
  "source": "paper PMC7824259",
  "about": "“Novel Cecropin-4 Derived Peptides against Methicillin-Resistant Staphylococcus aureus” (Antibiotics, 2021)",
  "key": {"[1]": {"tested_on": "S. aureus MW2", "assay": "Checkerboard synergy of C18 with clinical antibacterial agents", "type": "cell-based, Staphylococcus aureus", "conditions": "for Kind of interaction with C18: named agent combined with C18, S. aureus MW2, checkerboard; for FICI (fractional inhibition concentration index): named agent combined with C18, S. aureus MW2, 8 × 8 checkerboard, synergy FICI ≤ 0.5, additive 0.5 < FICI ≤ 4, antagonism > 4", "protocol": "The checkerboard assay was used to evaluate the synergy of C18 with conventional antibacterial agents against S. aureus MW2 [40]. Briefly, an 8 × 8 matrix was formed in a 96-well microtiter petri dish with two-fold serial dilutions of C18 combined with each conventional antibacterial agent. The fractional inhibition concentration index (FICI) was calculated: FICI = MIC of compound A in combination / MIC of compound A alone +MIC of compound B in combination / MIC of compound B alone."}, "[2]": {"assay": "Rhodamine-BF dye leakage from liposomes", "conditions": "liposomes DOPC: Cholesterol, 55:40; 1 h incubation", "source_text": "We also performed dye leakage experiments to further understand the membrane interactive nature of the peptides. A dye, rhodamine-BF, entrapped in liposomes (DOPC: Cholesterol, 55:40) was subjected to the action of the peptides."}, "[3]": {"tested_on": "S. aureus MW2", "assay": "Propidium iodide membrane permeability", "type": "cell-based, Staphylococcus aureus", "conditions": "32 µg/mL, 1 h incubation", "protocol": "Fluorescence-based bacterial permeation assay was used to follow the membrane-oriented interactions of the designed peptides. The propidium iodide probe is generally used to establish a pore formation mechanism of AMPs. In short, S. aureus MW2 was inoculated in MHB and grown overnight at 37 °C overnight with shaking at 220 rpm. A fresh inoculation was done the next day in the same media to achieve exponential growth. The culture was then washed with PBS 3 times and adjusted to OD600 ~0.3 in PBS. We added 48 μL of this culture to a 96-well black clear-bottom plate (Cat no. 3904, Corning, NY, USA) containing 50 μL of serially diluted 2 × peptide concentrations, and 2 μL of propidium iodide (20 μM) was added per well. Fluorescence was measured by SpectraMax M2 (Molecular Devices, CA, USA) with an excitation wavelength of 584 nm and an emission wavelength of 620 nm after 1 h at room temperature."}, "[4]": {"tested_on": "S. aureus MW2", "assay": "microbe, parasite or virus in culture", "type": "cell-based, Staphylococcus aureus", "conditions": "for MIC: Staphylococcus aureus, MW2, 18 h", "protocol": "Broth microdilution assays determined the MICs of peptides following the method described by the Clinical and Laboratory Standards Institute. In short, for each peptide, serial dilutions (50 µL) in duplicates were made in Mueller-Hinton broth (BD, Franklin Lakes, NJ, USA) in a 96-well plate (Cat No. 3595, Corning, NY, USA). […] After bacterial addition, the plates were incubated at 37°C for 18 h. […] To investigate each peptide’s activity in high salt concentrations or human serum, the MIC was again tested as described in the previous paragraph of the experimental method. […] All MIC assays were conducted in duplicate, with each experiment replicated twice."}, "[5]": {"tested_on": "G. mellonella larvae", "assay": "Galleria mellonella toxicity", "type": "in vivo", "conditions": "uninfected larvae, doses 4, 8, 16, 32 mg/kg, even at 32 mg/kg, until 120 h, n = 16/group", "protocol": "To study the protective effects of the peptide C18 in an in vivo model, we used an established wax moth model system. G. mellonella larvae (Vanderhorst Wholesale, St. Mary’s, OH, USA) were distributed as a different group with randomly selected larvae (n = 16/group). The S. aureus MW2 bacteria were grown to exponential phase from overnight culture. Cells were then washed with PBS three times and finally suspended in PBS with an OD600 = 0.3. Experimental groups consisted of untouched (no injection), PBS (vehicle), bacterial infection group, and treatment group. Vancomycin was used as a positive control. […] All injections were performed using a Hamilton syringe on the last left proleg. The larvae were incubated at 37 °C for 5 days, with live and dead counts being performed every 24 h."}, "[6]": {"tested_on": "human red blood cells", "type": "cell-based", "conditions": "for HL50 (50% of human red blood cells were lysed): 1 h", "protocol": "The ability of the peptide to cause hemoglobin leakage was evaluated, as described in a previous study. Human erythrocytes were purchased from Rockland Immunochemicals (Limerick, PA, USA), washed 3 × times in equal volume PBS, and resuspended as 4% hRBCs solution. One hundred microliters of the blood cells were added to 100 µl of the peptide solution in PBS serially diluted from 4–128 µg/mL in a 96-well microtiter plate. PBS and 1% Triton-X 100 were used as […] controls. Upon adding the blood cells, the plate was incubated at 37 °C for 1 h and then centrifuged at 500× g for 5 min. One hundred microliters of the supernatant were transferred to a fresh 96-well plate, and absorbance was read at 540 nm. The hemolysis percentage was calculated considering 100% hemolysis caused by 1% Triton X-100 and 0% on PBS. The values were represented as the mean of duplicates. The following formula calculated the percentage of hemolysis: (A540 nm in the peptide solution − A540 nm in PBS)/(A540 nm of 1% Triton X-100 treated sample − A540 nm in PBS) × 100. Zero and 100% percentage hemolysis were determined in PBS and […], respectively."}, "[7]": {"tested_on": "HepG2 cells", "assay": "Mammalian cell cytotoxicity (WST-1)", "type": "cell-based, human", "conditions": "64 µg/mL, HepG2, 24 h", "protocol": "HepG2 cells were used to assess the mammalian cell cytotoxicity of AMPs, as described previously. Cells were grown in Dulbecco’s Modified Eagle Medium (DMEM) (Gibco, MD, USA) supplemented with 10% fetal bovine serum (FBS) (Gibco, MD, USA) and 1% penicillin/streptomycin (Gibco, MD, USA) and maintained at 37°C in 5% CO2. Cells were harvested and resuspended in a fresh medium, and 100 µL were distributed in a 96-well plate at […]. AMPs were serially diluted in serum and antibiotic-free DMEM added to the monolayer of the cells, and the plates were incubated at 37 °C in 5% CO2 for 24 h. At 4 h, before the end of the incubation period, 10 µL of 2-(4-iodophenyl)-3-(4-nitrophenyl)-5-(2, 4-disulfophenyl)-2H-tetrazolium (WST-1) solution (Roche, Mannheim, Germany) was added to each well. WST-1 reduction was monitored at 450 nm using a Vmax microplate reader. Assays were performed in triplicate, and the percentage of cell survival was calculated."}, "[8]": {"tested_on": "psGABO-SPE plasmid DNA", "assay": "Plasmid band shift assay (DNA binding)", "protocol": "The methods in the reference were used to detect the ability of C18 binding DNA [43]. Briefly, the reaction of 20 μL containing 100 ng psGABO-SPE plasmid DNA (Addgene, MA, USA), polymyxin B, and C18 (1.95–500 μM) or ddH2O (control) was incubated in TE (Tris-EDTA) buffer (Invitrogen, CA, USA) at 37 °C for 2 h. The products were detected in 1% agarose gel electrophoresis, and plasmid migration was observed on a G: BOX Chemi XT4 gel doc system."}},
  "note": "Like-named read-outs stand apart in the source and are kept apart here. No end group written: not given here.",
  "data": [
    {"molecule": "CCCCCCCCCC(=O)N[C@@H](Cc1c[nH]c2ccccc12)C(=O)N[C@H](CC(N)=O)C(=O)N[C@@H](CC(=O)O)C(=O)N[C@@H]1C(=O)NCC(=O)N[C@@H](CCCN)C(=O)N[C@@H](CC(=O)O)C(=O)N[C@H](C)C(=O)N[C@@H](CC(=O)O)C(=O)NCC(=O)N[C@H](CO)C(=O)N[C@@H]([C@H](C)CC(=O)O)C(=O)N[C@@H](CC(=O)c2ccccc2N)C(=O)O[C@@H]1C", "note": "[daptomycin]", "values": [
      {"measurement": "Kind of interaction with C18", "setting": "[1]", "result": "synergistic effect"}
    ]},
    {"molecule": "CNC(C)C1CCC(N)C(OC2C(N)CC(N)C(OC3OCC(C)(O)C(NC)C3O)C2O)O1", "note": "(stereo not shown) [gentamicin]", "values": [
      {"measurement": "FICI (fractional inhibition concentration index)", "setting": "[1]", "result": 1.25},
      {"measurement": "Kind of interaction with C18", "setting": "[1]", "result": "additive effect"}
    ]},
    {"molecule": "Cc1onc(-c2ccccc2)c1C(=O)N[C@@H]1C(=O)N2[C@@H]1SC(C)(C)[C@@H]2C(=O)O", "note": "[oxacillin]", "values": [
      {"measurement": "FICI (fractional inhibition concentration index)", "setting": "[1]", "result": 0.75},
      {"measurement": "Kind of interaction with C18", "setting": "[1]", "result": "additive effect"}
    ]},
    {"molecule": "CN[C@H](CC(C)C)C(=O)N[C@H]1C(=O)N[C@@H](CC(N)=O)C(=O)N[C@H]2C(=O)N[C@H]3C(=O)N[C@H](C(=O)N[C@H](C(=O)O)c4cc(O)cc(O)c4-c4cc3ccc4O)[C@H](O)c3ccc(c(Cl)c3)Oc3cc2cc(c3O[C@@H]2O[C@H](CO)[C@@H](O)[C@H](O)[C@H]2O[C@H]2C[C@](C)(N)[C@H](O)[C@H](C)O2)Oc2ccc(cc2Cl)[C@H]1O", "note": "[vancomycin]", "values": [
      {"measurement": "Rhodamine-BF fluorescence (dye leakage)", "setting": "[2]", "result": "lowest"},
      {"measurement": "Propidium iodide fluorescence", "setting": "[3]", "result": "unable to induce any fluorescence"},
      {"measurement": "FICI (fractional inhibition concentration index)", "setting": "[1]", "result": 0.625},
      {"measurement": "Kind of interaction with C18", "setting": "[1]", "result": "additive effect"},
      {"measurement": "MIC against S. aureus MW2, Serum (5%)", "setting": "[4]; MHB with human serum (5%), 37 °C, 18 h, duplicate, replicated twice", "result": "not changed"},
      {"measurement": "MIC", "setting": "[4]; read-out: MIC against S. aureus MW2, CaCl2 (2 mM)", "result": 2, "unit": "µg/mL"},
      {"measurement": "MIC", "setting": "[4]; read-out: MIC against S. aureus MW2, MHB", "result": 2, "unit": "µg/mL"},
      {"measurement": "MIC", "setting": "[4]; read-out: MIC against S. aureus MW2, NaCl (150 mM)", "result": 2, "unit": "µg/mL"}
    ]},
    {"molecule": "LWKIGKKIWRVLWNWR [C18]", "values": [
      {"measurement": "Larvae survival (toxicity)", "setting": "[5]", "result": "more than 70%"},
      {"measurement": "HL50 relative to MIC against MRSA MW2", "setting": "[6]", "result": 4, "unit": "times"},
      {"measurement": "HL50 (50% of human red blood cells were lysed)", "setting": "[6]", "result": 16, "unit": "µg/mL"}
    ]},
    {"molecule": "LWKIWKKIWRVGWNWR [C13]", "values": [
      {"measurement": "HL50 (50% of human red blood cells were lysed)", "setting": "[6]", "result": 48, "unit": "µg/mL"}
    ]},
    {"molecule": "LWKIWKKIWRVWKNWR [C16]", "values": [
      {"measurement": "HL50 (50% of human red blood cells were lysed)", "setting": "[6]", "result": 16, "unit": "µg/mL"}
    ]},
    {"molecule": "LWKIWWKIWRVWKNWR [C22]", "values": [
      {"measurement": "Reduction of live-cell contents", "setting": "[7]", "result": 20, "unit": "%"},
      {"measurement": "HL50 (50% of human red blood cells were lysed)", "setting": "[6]", "result": 4, "unit": "µg/mL"}
    ]},
    {"molecule": "polymyxin B", "values": [
      {"measurement": "Concentration of significant DNA binding", "setting": "[8]; 100 ng plasmid, TE buffer, 37 °C, 2 h, 1% agarose gel, 1.95–500 μM tested", "result": 31.2, "unit": "µM"},
      {"measurement": "Concentration of significant DNA binding", "setting": "[8]; same concentration in brackets", "result": 37.1, "unit": "µg/mL"}
    ]}
  ]
}
